According to PubChem BioAssay (NCI):
Several values for one entry are separate records, joined by “and”; a condition that tells them apart may be missing. Equal entries are not always repeated.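 Step 1: Grow cells in 96-well plates. Step 2: Expose to compound for 48 hours at 5 concentrations. Step 3: Interpolate endpoints linearly; if unreached, use highest concentration. GI50: concentration for 50% inhibition of growth. TGI denotes the concentration required for complete inhibition of growth.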

Experiments:
Experiment in all cases: inhibition of tumour cell growth, NCI panel, 48 h
[1] = tested on: PC-3 prostate
[2] = tested on: T-47D breast
[3] = tested on: HS 578T breast
[4] = tested on: DLD-1 colon
[5] = tested on: DMS 114 small cell lung
[6] = tested on: KM20L2 colon
[7] = tested on: LXFL 529 NSCLC
[8] = tested on: SNB-78 CNS
[9] = tested on: XF 498 CNS
[10] = tested on: HOP-18 NSCLC

In the case of `COC(=O)/C(C#N)=C\N1CCN(C(=O)c2ccco2)C1=S`, the GI50 [1] is reported as 6.82 µM, the TGI [1] is reported as 63.4 µM and the GI50 [2] is reported as 4.63 µM. For the same molecule, the TGI [2] was 67.1 µM.
Work on `CCN1CCN(CCOc2ccc(CNc3ccc4nc(CCC5CCCCC5)[nH]c4c3)cc2)CC1` yielded a GI50 [3] of 1.61 µM, a TGI [3] of 4.85 µM and a GI50 [1] of 2.02 µM. The TGI [1] was 5.89 µM, the GI50 [2] was 1.93 µM and the TGI [2] was 5.41 µM.
In the case of `CC1=C(C(=O)Nc2cccc(C(F)(F)F)c2)C(c2ccc(O)cc2)C(C(=O)Nc2cccc(C(F)(F)F)c2)=C(C)N1`, the TGI [4] is reported as 73.3 µM, the TGI [5] is reported as 45.8 µM and the TGI [6] is reported as 54.6 µM. For the same molecule, the TGI [7] was 55.3 µM, the TGI [8] was 83.2 µM and the TGI [9] was 8.06 µM.
With `Cc1ccc2nc3c(Cl)cc(=O)cc-3sc2c1` the TGI [5] was 48.1 µM, the TGI [7] was 63.1 µM and the TGI [8] was greater than 100 µM.
With `CCCCCCCCCCCCCCCCOC(=O)C(C(=O)OCCCCCCCCCCCCCCCC)[N+](C)(C)CCOC(C)=O` the TGI [4] was 31.3 µM, the TGI [5] was 41.8 µM and the TGI [10] was 30.3 µM. For the same molecule, the TGI [6] was 50 µM, the TGI [7] was 37.2 µM and the TGI [8] was 45.7 µM.
`CC1=C(N2CC2)C(=O)C(CO)=C(N2CC2)C1=O` was tested, and the GI50 [3] was 0.139 µM, the TGI [3] was 0.352 µM and 1.43 µM and the GI50 [1] was 0.0159 µM and < 0.0213 µM. It also gave a TGI [1] of 0.0791 µM and a TGI [2] of 0.529 µM.
`O=S(=O)(NCCNc1nccc(-c2c(-c3cccc(O)c3)nc3sccn23)n1)c1ccc(F)cc1` gave a GI50 [3] of 2.93 µM, a TGI [3] of 11.7 µM and a GI50 [1] of 5.66 µM. It also gave a TGI [1] of 63.5 µM, a GI50 [2] of 6.54 µM and a TGI [2] of 25 µM.
`O=C(Nc1cccc(Cl)c1)Nc1cccc(Cl)c1` showed a GI50 [3] greater than 100 µM, a TGI [3] greater than 100 µM and a GI50 [1] of 2.54 µM. The TGI [1] was greater than 100 µM, the GI50 [2] was 2.28 µM and the TGI [2] was greater than 100 µM.
With `CC(=O)OC1C=CC2CCN3C(=O)c4cc5c(cc4[C@H]1C23)OCO5` (stereo not given in full) the TGI [4] was greater than 100 µM, the TGI [5] was greater than 100 µM and the TGI [6] was greater than 100 µM. It also gave a TGI [7] greater than 100 µM and a TGI [8] greater than 100 µM.
Work on `COc1ccc(Nc2c3ccccc3nc3c2c2ccccc2n3C)cc1` yielded a GI50 [3] of 46.4 µM, a TGI [3] greater than 100 µM and a GI50 [1] of 11.1 µM. For the same molecule, the TGI [1] was 54.2 µM.
Molecule `COC(=O)[C@]12CC[C@@H](C)[C@H](C)[C@@H]1C1=CC[C@@H]3[C@@]4(C)C[C@@H](OC(=O)c5ccco5)[C@H](O)[C@@](C)(CO)[C@@H]4[C@H](O)C[C@@]3(C)[C@]1(C)CC2` has a GI50 [3] of 2.24 µM, a TGI [3] of 7.4 µM and a GI50 [1] of 2.6 µM. For the same molecule, the TGI [1] was 6.73 µM, the GI50 [2] was 3.13 µM and the TGI [2] was 9.17 µM.
`Nc1nc(-c2ccccc2)c(-c2ccccc2)c(-c2nc(N)nc(-c3ccccc3)c2-c2ccccc2)n1` gave a TGI [3] greater than 100 µM, a TGI [1] greater than 100 µM and a TGI [2] greater than 100 µM.
`COc1ccc(/C=C2\N=C(c3ccccc3)OC2=O)c(OCc2ccccc2)c1` was tested, and the TGI [4] was 77.2 µM, the TGI [5] was 92.3 µM and the TGI [10] was greater than 100 µM. The TGI [6] was greater than 100 µM and the TGI [7] was greater than 100 µM.
`O=[N+]([O-])c1cccc(C2SCc3nc4ccccc4n32)c1` (stereo not given) was tested, and the TGI [4] was greater than 100 µM, the TGI [5] was greater than 100 µM and the TGI [10] was greater than 100 µM. For the same molecule, the TGI [6] was greater than 100 µM, the TGI [7] was greater than 100 µM and the TGI [8] was greater than 100 µM.
`COc1cc(/C=C/C(=O)C(=Cc2ccc(F)c(F)c2)C(=O)/C=C/c2ccc(O)c(OC)c2)ccc1O` showed a GI50 [3] of 3.25 µM, a TGI [3] of 15.4 µM and a GI50 [1] of 2.49 µM. The TGI [1] was 8.31 µM, the GI50 [2] was 2.31 µM and the TGI [2] was 7.7 µM.
Work on `CN(C)CC(C(=O)c1ccccc1)c1ccccc1` (stereo not given) yielded a GI50 [3] of 2.19 µM, a TGI [3] of 12.8 µM and a GI50 [1] of 4.12 µM. For the same molecule, the TGI [1] was 16.9 µM, the GI50 [2] was 2.03 µM and the TGI [2] was 5.73 µM.
`COc1cc2c(cc1OC)C(CCc1ccc(Cl)cc1)N(C)CC2` (stereo not given) was tested, and the GI50 [3] was 18.3 µM, the TGI [3] was 51.4 µM and the GI50 [1] was 20.1 µM. For the same molecule, the TGI [1] was greater than 100 µM, the GI50 [2] was 23.8 µM and the TGI [2] was 76.8 µM.
Work on `O=C1Cc2cc(CCn3ccnc3)c(Cl)cc2N1` yielded a GI50 [3] of 0.873 µM, a TGI [3] of 9.92 µM and a GI50 [1] of 35.6 µM. For the same molecule, the TGI [1] was greater than 100 µM, the GI50 [2] was 75.6 µM and the TGI [2] was greater than 100 µM.
For `CCOc1ccc(Cc2nccc3cc(OCC)c(OCC)cc23)cc1OCC`, the GI50 [3] was 13.2 µM, the TGI [3] was 57.7 µM and the GI50 [1] was 4.41 µM. The TGI [1] was 33.4 µM, the GI50 [2] was 1.47 µM and the TGI [2] was 15 µM.
In the case of `Cc1cc2c3ccccc3n(C)c2c2c1C(=O)c1ccccc1C2=O`, the TGI [4] is reported as 31.8 µM, the TGI [5] is reported as 46 µM and the TGI [7] is reported as 35.5 µM. For the same molecule, the TGI [9] was 35.7 µM.
With `Oc1nc(NCCc2ccccc2)sc1/C=C1\C=Nc2ncccc21` the GI50 [3] was 2.55 µM and 3.19 µM, the TGI [3] was 7.44 µM and 9.51 µM and the GI50 [1] was 3.27 µM and 3.87 µM. For the same molecule, the TGI [1] was 12.2 µM and 19 µM, the GI50 [2] was 2.15 µM and 3.22 µM and the TGI [2] was 9.09 µM and 8.2 µM.
`O=C(CC(=O)N1N=C(n2ccc3ccccc32)CC1c1ccccc1)Nc1cccc(Cl)c1` (stereo not given) showed a TGI [4] greater than 100 µM, a TGI [10] greater than 100 µM and a TGI [6] greater than 100 µM. It also gave a TGI [7] greater than 100 µM and a TGI [8] greater than 100 µM.
Molecule `Cc1ccc(/C=C(\C#N)n2nnc3cc(Cl)c(Cl)cc32)cc1` has a GI50 [3] of 2.83 µM and a TGI [3] greater than 100 µM.
For `CCCNc1nc(N(C)O)nc(N(C)O)n1`, the GI50 [3] was 6.51 µM, the TGI [3] was greater than 100 µM and the GI50 [1] was 6.66 µM. For the same molecule, the TGI [1] was greater than 100 µM, the GI50 [2] was 3.9 µM and the TGI [2] was greater than 100 µM.
`CC1C2Cc3ccc(O)cc3C1(C)CCN2C` (stereo not given) was tested, and the TGI [3] was greater than 100 µM, the TGI [1] was greater than 100 µM and the TGI [2] was greater than 100 µM.
With `O=C1NC(=NCc2cccs2)SC1Cc1ccc2ncccc2c1` (stereo not given) the GI50 [3] was 9.87 µM, the TGI [3] was greater than 25 µM and the GI50 [1] was 15.6 µM. It also gave a TGI [1] greater than 25 µM, a GI50 [2] of 24.9 µM and a TGI [2] greater than 25 µM.
With `C/C=C/C=N/N(c1nnc(-c2ccccc2)c(-c2ccccc2)n1)S(=O)(=O)c1ccc(C)cc1` the TGI [4] was 32.7 µM, the TGI [5] was 37.6 µM and the TGI [10] was 27.4 µM. It also gave a TGI [6] of 26.1 µM, a TGI [7] of 19.3 µM and a TGI [8] of 83.2 µM.
`CN(C)c1cccc(-c2cc(=O)c3ccccc3[nH]2)c1` gave a TGI [4] greater than 100 µM, a GI50 [5] of 46 µM and a TGI [5] greater than 100 µM. It also gave a GI50 [6] of 34.5 µM, a TGI [6] greater than 100 µM and a TGI [7] greater than 100 µM. It also gave a TGI [8] greater than 100 µM.
`Cc1cc(C)nc(NS(=O)(=O)c2ccc(Nc3c4ccccc4nc4c(C(=O)NCCN(C)C)ccc(Cl)c34)cc2)n1` was tested, and the TGI [4] was 13.4 µM, the TGI [5] was 3.94 µM and the TGI [6] was 12 µM. It also gave a TGI [7] of 4.06 µM, a TGI [8] of 35.5 µM and a TGI [9] of 17.3 µM.
`CCOP(=O)(CCP(=O)(OCC)OCC)OCC.C[CH2][Sn]([Cl])([Cl])[CH2]C` showed a GI50 [4] of 27.7 µM, a TGI [4] greater than 79 µM and a GI50 [5] of 16.7 µM. The TGI [5] was 34.5 µM, the GI50 [10] was 20.7 µM and the TGI [10] was 35 µM. The GI50 [3] was greater than 100 µM, the TGI [3] was greater than 100 µM and the GI50 [6] was greater than 68.2 µM. It also gave a TGI [6] greater than 100 µM, a GI50 [7] of 10.7 µM and a TGI [7] of 22.8 µM. The GI50 [1] was greater than 100 µM, the TGI [1] was greater than 100 µM and the GI50 [8] was 17.2 µM. For the same molecule, the TGI [8] was 41.8 µM, the GI50 [2] was 18.5 µM and the TGI [2] was 40.9 µM.
